Columns and labels:
[1] = tested on: OVCAR-3; test: Growth inhibition of human OVCAR3 cells assessed as cell growth at 10 uM after 48 hrs by sulforhodamine B assay; assay type: functional; details: OVCAR-3, 48 h, read-out: Activity
[2] = tested on: HCT-15; test: Growth inhibition of human HCT15 cells after 48 hrs by sulforhodamine B assay; assay type: functional; details: HCT-15, 48 h
[3] = tested on: M14; test: Growth inhibition of human M14 cells after 48 hrs by sulforhodamine B assay; assay type: functional; details: M14, 48 h
[4] = tested on: NCI-H460; test: Growth inhibition of human NCI-H460 cells after 48 hrs by sulforhodamine B assay; assay type: functional; details: NCI-H460, 48 h
[5] = tested on: CAKI-1; test: Growth inhibition of human CAKI-1 cells after 48 hrs by sulforhodamine B assay; assay type: functional; details: CAKI-1, 48 h
[6] = tested on: NCI-H522; test: Growth inhibition of human NCI-H522 cells assessed as cell growth at 10 uM after 48 hrs by sulforhodamine B assay; assay type: functional; details: NCI-H522, 48 h, read-out: Activity
[7] = tested on: SK-OV-3; test: Growth inhibition of human SKOV3 cells assessed as cell growth at 10 uM after 48 hrs by sulforhodamine B assay; assay type: functional; details: SK-OV-3, 48 h, read-out: Activity
[8] = Growth inhibition of human NCI-ADR-RES cells after 48 hrs by sulforhodamine B assay; assay type: functional
[9] = tested on: OVCAR-8; test: Growth inhibition of human OVCAR8 cells assessed as cell growth at 10 uM after 48 hrs by sulforhodamine B assay; assay type: functional; details: OVCAR-8, 48 h, read-out: Activity
[10] = tested on: PC-3; test: Growth inhibition of human PC3 cells assessed as cell growth at 10 uM after 48 hrs by sulforhodamine B assay; assay type: functional; details: PC-3, 48 h, read-out: Activity
[11] = tested on: U-251; test: Growth inhibition of human U251 cells assessed as cell growth at 10 uM after 48 hrs by sulforhodamine B assay; assay type: functional; details: U-251, 48 h, read-out: Activity
[12] = tested on: COLO 205; test: Growth inhibition of human COLO205 cells assessed as cell growth at 10 uM after 48 hrs by sulforhodamine B assay; assay type: functional; details: COLO 205, 48 h, read-out: Activity
[13] = tested on: T47D; test: Growth inhibition of human T47D cells assessed as cell growth at 10 uM after 48 hrs by sulforhodamine B assay; assay type: functional; details: read-out: Activity
[14] = tested on: UO-31; test: Growth inhibition of human UO31 cells after 48 hrs by sulforhodamine B assay; assay type: functional; details: UO-31, 48 h
[15] = tested on: HL-60(TB); test: Growth inhibition of human HL-60(TB) cells assessed as cell growth at 10 uM after 48 hrs by sulforhodamine B assay; assay type: functional; details: HL-60, 48 h, read-out: Activity
[16] = tested on: OVCAR-5; test: Growth inhibition of human OVCAR5 cells assessed as cell growth at 10 uM after 48 hrs by sulforhodamine B assay; assay type: functional; details: OVCAR-5, 48 h, read-out: Activity
[17] = tested on: OVCAR-5; test: Growth inhibition of human OVCAR5 cells after 48 hrs by sulforhodamine B assay; assay type: functional; details: OVCAR-5, 48 h
[18] = tested on: OVCAR-8; test: Growth inhibition of human OVCAR8 cells after 48 hrs by sulforhodamine B assay; assay type: functional; details: OVCAR-8, 48 h
[19] = tested on: HOP-62; test: Growth inhibition of human HOP62 cells assessed as cell growth at 10 uM after 48 hrs by sulforhodamine B assay; assay type: functional; details: HOP-62, 48 h, read-out: Activity
[20] = tested on: UO-31; test: Growth inhibition of human UO31 cells assessed as cell growth at 10 uM after 48 hrs by sulforhodamine B assay; assay type: functional; details: UO-31, 48 h, read-out: Activity
[21] = tested on: SK-MEL-5; test: Growth inhibition of human SK-MEL-5 cells after 48 hrs by sulforhodamine B assay; assay type: functional; details: SK-MEL-5, 48 h
[22] = Growth inhibition of human Hs 578T cells assessed as cell growth at 10 uM after 48 hrs by sulforhodamine B assay; assay type: functional; details: read-out: Activity
[23] = tested on: U-251; test: Growth inhibition of human U251 cells after 48 hrs by sulforhodamine B assay; assay type: functional; details: U-251, 48 h
[24] = tested on: MDA-MB-435; test: Growth inhibition of human MDA-MB-435 cells after 48 hrs by sulforhodamine B assay; assay type: functional, cell-based; details: MDA-MB-435, 48 h
[25] = tested on: SF-268; test: Growth inhibition of human SF268 cells after 48 hrs by sulforhodamine B assay; assay type: functional; details: SF-268, 48 h
[26] = tested on: SF-268; test: Growth inhibition of human SF268 cells assessed as cell growth at 10 uM after 48 hrs by sulforhodamine B assay; assay type: functional; details: SF-268, 48 h, read-out: Activity
[27] = tested on: Malme-3M; test: Growth inhibition of human MALME-3M cells after 48 hrs by sulforhodamine B assay; assay type: functional
[28] = tested on: HOP-62; test: Growth inhibition of human HOP62 cells after 48 hrs by sulforhodamine B assay; assay type: functional; details: HOP-62, 48 h
[29] = Growth inhibition of human NCI-ADR-RES cells assessed as cell growth at 10 uM after 48 hrs by sulforhodamine B assay; assay type: functional; details: read-out: Activity
[30] = tested on: 786-0; test: Growth inhibition of human 786-0 cells after 48 hrs by sulforhodamine B assay; assay type: functional; details: 786-0, 48 h
[31] = tested on: NCI-H23; test: Growth inhibition of human NCI-H23 cells after 48 hrs by sulforhodamine B assay; assay type: functional; details: NCI-H23, 48 h
[32] = tested on: CCRF-CEM; test: Growth inhibition of human CCRF-CEM cells after 48 hrs by sulforhodamine B assay; assay type: functional
[33] = tested on: MOLT-4; test: Growth inhibition of human MOLT4 cells after 48 hrs by sulforhodamine B assay; assay type: functional; details: MOLT-4, 48 h
[34] = tested on: OVCAR-4; test: Growth inhibition of human OVCAR4 cells after 48 hrs by sulforhodamine B assay; assay type: functional; details: OVCAR-4, 48 h
[35] = tested on: SR; test: Growth inhibition of human SR cells after 48 hrs by sulforhodamine B assay; assay type: functional
[36] = read-out: LC50 (the source's name)

Structure (SMILES): COc1cc(-c2nn(-c3cccc(NC(=O)c4ccc(N5CCOCC5)c(C(F)(F)F)c4)c3)cc2-c2ccncc2)ccc1Cl
- growth at 10 µM [1]: -29.9%
- GI50 [2]: 247 nM
- LC50 [2]: > 100000 nM
- TGI [2]: > 100000 nM
- GI50 [3]: 430 nM
- LC50 (concentration killing 50% of cells) [3]: > 100000 nM
- TGI [3]: 16000 nM
- GI50 [4]: 336 nM
- LC50 [4]: > 100000 nM
- TGI [4]: > 100000 nM
- GI50 [5]: 360 nM
- TGI [5]: 8120 nM
- CC50 [5, 36]: > 100000 nM
- growth at 10 µM [6]: 0.2%
- growth at 10 µM [7]: 1.88%
- GI50 [8]: 228 nM
- TGI [8]: > 100000 nM
- CC50 [8, 36]: > 100000 nM
- growth at 10 µM [9]: 5.23%
- growth at 10 µM [10]: 8.17%
- growth at 10 µM [11]: 2.49%
- growth at 10 µM [12]: -43.4%
- growth at 10 µM [13]: 27.5%
- GI50 [14]: 289 nM
- TGI [14]: 7530 nM
- CC50 [14, 36]: > 100000 nM
- growth at 10 µM [15]: -8.08%
- growth at 10 µM [16]: 34.7%
- GI50 [17]: 1450 nM
- LC50 (concentration killing 50% of cells) [17]: > 100000 nM
- TGI [17]: > 100000 nM
- GI50 [18]: 468 nM
- TGI [18]: > 100000 nM
- CC50 [18, 36]: > 100000 nM
- growth at 10 µM [19]: 29.4%
- growth at 10 µM [20]: 24.6%
- GI50 [21]: 112 nM
- LC50 (concentration killing 50% of cells) [21]: 7640 nM
- TGI [21]: 675 nM
- growth at 10 µM [22]: -13.6%
- GI50 [23]: 399 nM
- LC50 (concentration killing 50% of cells) [23]: 60700 nM
- TGI [23]: 3950 nM
- GI50 [24]: 26.6 nM
- IC50 [24]: 27 nM
- TGI [24]: 91.4 nM
- CC50 [24, 36]: > 100000 nM
- GI50 [25]: 668 nM
- TGI [25]: > 100000 nM
- CC50 [25, 36]: > 100000 nM
- growth at 10 µM [26]: 22.5%
- GI50 [27]: 129 nM
- LC50 (concentration killing 50% of starting cells) [27]: > 100000 nM
- TGI [27]: 5100 nM
- GI50 [28]: 583 nM
- TGI [28]: > 100000 nM
- CC50 [28, 36]: > 100000 nM
- growth at 10 µM [29]: -7.13%
- GI50 [30]: 819 nM
- CC50 [30, 36]: > 100000 nM
- GI50 [31]: 870 nM
- LC50 [31]: > 100000 nM
- TGI [31]: 20700 nM
- GI50 [32]: 236 nM
- LC50 [32]: > 100000 nM
- TGI [32]: > 100000 nM
- GI50 [33]: 669 nM
- TGI [33]: > 100000 nM
- CC50 [33, 36]: > 100000 nM
- GI50 [34]: 957 nM
- LC50 (concentration killing 50% of cells) [34]: > 100000 nM
- TGI [34]: > 100000 nM
- GI50 [35]: 36.9 nM
- TGI [35]: > 100000 nM
- CC50 [35, 36]: > 100000 nM
